Source: patent US9993494B2, “Compositions and methods for treating fibrotic disease” (eFFECTOR Therapeutics, Inc., priority 2014, dated 2018)

System: normal human lung fibroblasts
Experiment: Ribosomal profiling: translational efficiency in TGFβ-treated fibroblasts
Format: cell-based
Details: TGFβ-treated fibroblasts
Method in brief: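 Cells lysed on ice after a cold PBS wash containing cycloheximide. Ribosome-protected fragments and total mRNA were prepared with the ARTseq kit and sequenced by RNA-Seq. Reads were trimmed, mapped to the human genome and counted uniquely over coding regions per gene, with low-count genes excluded before differential translational-efficiency analysis.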

Cc1ccc(=O)n(-c2ccccc2)c1 [pirfenidone, 5-methyl-1-phenylpyridin-2-one]
− (− = <0.9): renormalizing the translational profile of DNASE1L1 (ENSG00000013563) | renormalizing the translational profile of KITLG (ENSG00000049130) | renormalizing the translational profile of ADAMTS6 (ENSG00000049192) | renormalizing the translational profile of LETMD1 (ENSG00000050426) | renormalizing the translational profile of PLEKHA5 (ENSG00000052126) | renormalizing the translational profile of HIPK2 (ENSG00000064393) | renormalizing the translational profile of RASSF1 (ENSG00000068028) | renormalizing the translational profile of PABPC1 (ENSG00000070756) | renormalizing the translational profile of PLD1 (ENSG00000075651) | renormalizing the translational profile of EDN1 (ENSG00000078401) | renormalizing the translational profile of AURKA (ENSG00000087586) | renormalizing the translational profile of EPB41L1 (ENSG00000088367) | renormalizing the translational profile of RPL6 (ENSG00000089009) | renormalizing the translational profile of KDM2B (ENSG00000089094) | renormalizing the translational profile of RPLP0 (ENSG00000089157) | renormalizing the translational profile of IGBP1 (ENSG00000089289) | renormalizing the translational profile of IRAK3 (ENSG00000090376) | renormalizing the translational profile of PABPC4 (ENSG00000090621) | renormalizing the translational profile of ACOT7 (ENSG00000097021) | renormalizing the translational profile of ATP5D (ENSG00000099624) | renormalizing the translational profile of EIF3L (ENSG00000100129) | renormalizing the translational profile of CEP192 (ENSG00000101639) | renormalizing the translational profile of AMMECR1 (ENSG00000101935) | renormalizing the translational profile of PLP2 (ENSG00000102007) | renormalizing the translational profile of EIF3E (ENSG00000104408) | renormalizing the translational profile of EEF1D (ENSG00000104529) | renormalizing the translational profile of C19orf53 (ENSG00000104979) | renormalizing the translational profile of COMP (ENSG00000105664) | renormalizing the translational profile of CORO2A (ENSG00000106789) | renormalizing the translational profile of GDF10 (ENSG00000107623) | renormalizing the translational profile of RPL19 (ENSG00000108298) | renormalizing the translational profile of RASD1 (ENSG00000108551) | renormalizing the translational profile of NAT9 (ENSG00000109065) | renormalizing the translational profile of CRYAB (ENSG00000109846) | renormalizing the translational profile of GAPDH (ENSG00000111640) | renormalizing the translational profile of C12orf57 (ENSG00000111678) | renormalizing the translational profile of MDFI (ENSG00000112559) | renormalizing the translational profile of HBEGF (ENSG00000113070) | renormalizing the translational profile of RPL24 (ENSG00000114391) | renormalizing the translational profile of EEF1B2 (ENSG00000114942) | renormalizing the translational profile of DPH5 (ENSG00000117543) | renormalizing the translational profile of PPL (ENSG00000118898) | renormalizing the translational profile of PLEKHG1 (ENSG00000120278) | renormalizing the translational profile of LIAS (ENSG00000121897) | renormalizing the translational profile of GPSM2 (ENSG00000121957) | renormalizing the translational profile of INHBA (ENSG00000122641) | renormalizing the translational profile of LAMP5 (ENSG00000125869) | renormalizing the translational profile of NECAB3 (ENSG00000125967) | renormalizing the translational profile of COX7C (ENSG00000127184) | renormalizing the translational profile of LIF (ENSG00000128342) | renormalizing the translational profile of ARHGEF6 (ENSG00000129675) | renormalizing the translational profile of GDF15 (ENSG00000130513) | renormalizing the translational profile of ASS1 (ENSG00000130707) | renormalizing the translational profile of EIF2S3 (ENSG00000130741) | renormalizing the translational profile of RPL27 (ENSG00000131469) | renormalizing the translational profile of MATN3 (ENSG00000132031) | renormalizing the translational profile of KDM6B (ENSG00000132510) | renormalizing the translational profile of RARRES3 (ENSG00000133321) | renormalizing the translational profile of BIVM (ENSG00000134897) | renormalizing the translational profile of HNRNPA1 (ENSG00000135486) | renormalizing the translational profile of IL6 (ENSG00000136244) | renormalizing the translational profile of RPL35 (ENSG00000136942) | renormalizing the translational profile of NOV (ENSG00000136999) | renormalizing the translational profile of IER3 (ENSG00000137331) | renormalizing the translational profile of DDX60 (ENSG00000137628) | renormalizing the translational profile of PAQR5 (ENSG00000137819) | renormalizing the translational profile of AOX1 (ENSG00000138356) | renormalizing the translational profile of PDE5A (ENSG00000138735) | renormalizing the translational profile of GAS2L3 (ENSG00000139354) | renormalizing the translational profile of MYO19 (ENSG00000141140) | renormalizing the translational profile of RPL11 (ENSG00000142676) | renormalizing the translational profile of PLEKHA6 (ENSG00000143850) | renormalizing the translational profile of RPL32 (ENSG00000144713) | renormalizing the translational profile of BTF3 (ENSG00000145741) | renormalizing the translational profile of DENND2A (ENSG00000146966) | renormalizing the translational profile of EIF3H (ENSG00000147677) | renormalizing the translational profile of EIF3M (ENSG00000149100) | renormalizing the translational profile of FAU (ENSG00000149806) | renormalizing the translational profile of FRMD4A (ENSG00000151474) | renormalizing the translational profile of HOMER1 (ENSG00000152413) | renormalizing the translational profile of PLEKHH2 (ENSG00000152527) | renormalizing the translational profile of ANKH (ENSG00000154122) | renormalizing the translational profile of ABCA6 (ENSG00000154262) | renormalizing the translational profile of OBSCN (ENSG00000154358) | renormalizing the translational profile of ADAMTS5 (ENSG00000154736) | renormalizing the translational profile of OXA1L (ENSG00000155463) | renormalizing the translational profile of C9orf85 (ENSG00000155621) | renormalizing the translational profile of NRG1 (ENSG00000157168) | renormalizing the translational profile of ADAMTS4 (ENSG00000158859) | renormalizing the translational profile of RPL8 (ENSG00000161016) | renormalizing the translational profile of RPL29 (ENSG00000162244) | renormalizing the translational profile of CAMK2N1 (ENSG00000162545) | renormalizing the translational profile of IGFBP7 (ENSG00000163453)
+++ (+++ = >2.0): renormalizing the translational profile of FMO2 (ENSG00000094963) | renormalizing the translational profile of PPARG (ENSG00000132170)
+ (+ = 0.9 to 1.5): renormalizing the translational profile of EIF4B (ENSG00000063046) | renormalizing the translational profile of RPL18 (ENSG00000063177) | renormalizing the translational profile of ASPM (ENSG00000066279) | renormalizing the translational profile of RPL31 (ENSG00000071082) | renormalizing the translational profile of LGALS1 (ENSG00000100097) | renormalizing the translational profile of RPL3 (ENSG00000100316) | renormalizing the translational profile of GLTSCR2 (ENSG00000105373) | renormalizing the translational profile of RAB3D (ENSG00000105514) | renormalizing the translational profile of RPL18A (ENSG00000105640) | renormalizing the translational profile of GLCCI1 (ENSG00000106415) | renormalizing the translational profile of RPL28 (ENSG00000108107) | renormalizing the translational profile of RPL34 (ENSG00000109475) | renormalizing the translational profile of IFIH1 (ENSG00000115267) | renormalizing the translational profile of RPL21 (ENSG00000122026) | renormalizing the translational profile of RPL5 (ENSG00000122406) | renormalizing the translational profile of CIT (ENSG00000122966) | renormalizing the translational profile of RPL23 (ENSG00000125691) | renormalizing the translational profile of RPL36 (ENSG00000130255) | renormalizing the translational profile of ATP5G2 (ENSG00000135390) | renormalizing the translational profile of RPLP1 (ENSG00000137818) | renormalizing the translational profile of FGF5 (ENSG00000138675) | renormalizing the translational profile of RPL13A (ENSG00000142541) | renormalizing the translational profile of ACTA1 (ENSG00000143632) | renormalizing the translational profile of RPL37 (ENSG00000145592) | renormalizing the translational profile of HIGD2A (ENSG00000146066) | renormalizing the translational profile of CREB5 (ENSG00000146592) | renormalizing the translational profile of RPL10 (ENSG00000147403) | renormalizing the translational profile of RPL7A (ENSG00000148303) | renormalizing the translational profile of RPL30 (ENSG00000156482) | renormalizing the translational profile of EEF1A1 (ENSG00000156508) | renormalizing the translational profile of RPL26 (ENSG00000161970) | renormalizing the translational profile of RPL22L1 (ENSG00000163584)
++ (++ = 1.5 to 2.0): renormalizing the translational profile of P2RX7 (ENSG00000089041) | renormalizing the translational profile of MTUS1 (ENSG00000129422) | renormalizing the translational profile of KRT7 (ENSG00000135480) | renormalizing the translational profile of DIAPH3 (ENSG00000139734) | renormalizing the translational profile of CCDC102B (ENSG00000150636)
